# Where two headings read alike, the source gives them in different places.
# Legend:
# subretinal fibrosis = assay: Laser-induced subretinal fibrosis model in mice; format: in vivo, C57BL/6 mice; conditions: for effect on subretinal fibrosis: approximately 1 μL intravitreally on day of laser application, Days 15 and 35; for neovascular lesion sizes: approximately 1 μL of 1% (w/w) intravitreally on day of laser application
# Method: The anti-fibrotic effects of test compounds were also evaluated in a subretinal fibrosis model in C57BL/6 mice. Three to five lesions were generated in the Bruch's membrane of the study eye using laser photocoagulation (75-μm spot size, 0.1-s duration, 90 mW, OcuLight TX 532 nm). Subretinal fibrosis started to form 5-7 days post laser application. Test compounds having certain spectrum of multikinase inhibition activities or vehicle were intravitreally injected on the day of laser application. The dosing concentration of the test compounds was 1% (w/w) of nintedanib and lenvatinib. The control groups were vehicle and mouse VEGF164 antibody. There were 12 mice per treatment group. Approximately, 1 μL each of the test compounds, vehicle, or positive control was injected intravitreally to the right eye of each animal. On Days 15 and 35, the eyes were examined with fluorescein angiography, followed by enucleation. Immunostaining on the dissected choroid was used to assess subretinal fibrosis (e.g., collagen 1, isolectin B4 and/or DAPI). The primary antibodies used were fluorescence conjugated isolectin B4 (FITC-conjugated isolectin B4) and anti-collagen type I antibody. […] Thus, these compounds can be used to treat subretinal fibrosis associated with proliferative retinal diseases.
# [1] = tested on: LL37-induced inflammation; assay: Histopathology (inflammation, CD4+ and CD8+ lymphocyte scores) in LL37-induced dermal inflammation model; format: in vivo; conditions: mice, single intradermal injection 1.6 mg, LL-37 challenge, 48 hours
# Method: (§1) In our study, mice were injected subcutaneously with 40 μl of LL-37 (3.3 mg/mL) to induce inflammatory reactions. Immediately following the LL-37 injection, axitinib, nintedanib, sunitinib, or lenvatinib were individually administered as a single intradermal injection (1.6 mg). LL-37 injection was repeated every 12 hours for a total of 4 injections. Endotoxin-free water and dexamethasone (3 mg/kg by intraperitoneal injection, twice), respectively, were used as negative and positive control groups.
# At 48 hours after the initial LL-37 injection, the dorsal skin was photographed, and the severity of skin lesions were scored for redness and measured for areas of involvement.
# (§2) Mice were then anaesthetized, and tissue samples of lesion sites were excised and fixed for H&E stainings and immunohistochemical analysis. Markers for inflammation (CD4 and CD8) were determined using specific antibodies. TGF beta levels are measured by mRNA expression using qPCR.
# The tissue samples were analyzed for inflammation characteristics. Histopathology endpoints included inflammation, and CD4+ and CD8+T-lymphocyte immunostaining. For inflammation scores, tissues were examined histologically and scored for inflammatory cell infiltrate.
# subconjunctival scarring = assay: Bleb survival after glaucoma filtration surgery in rabbit eyes; format: in vivo, rabbits
# Method: In order to investigate the anti-scarring effect of topically applied test compounds following ocular surgeries, glaucoma filtration surgery was performed on rabbit eyes. Postoperative subconjunctival wound healing is a major cause of late bleb failure after glaucoma filtration surgery in humans. Select multikinase inhibitors were tested for effect on bleb survival over time. Inhibition of subconjunctival fibrosis following surgery will improve bleb survival. Vehicle was used as a negative control and pirfenidone was used a positive control.
# A scleral tract was created in the left eyes superiorally by tunneling a beveled 22-gauge intravenous cannula through the sclera, beginning behind the limbus and continuing until the cannula is visible in the anterior chamber. The cannula was flushed with sodium heparin (1000 units) prior to placement. The cannula needle was withdrawn and the cannula advanced beyond the pupillary margin to prevent iris blockage of the tube. The cannula was trimmed approximately 2 mm and secured to the sclera using suture. Both the Tenon's and the conjunctiva were sutured with 9-0 Prolene. Six rabbits were used per group and the left eye of each rabbit underwent glaucoma filtration surgery. The treatment groups include vehicle control, pirfenidone (1%, w/v) as a positive control, sorafenib (0.3%, w/v), and lenvatinib (0.3%, w/v). Eyedrops (35 uL) were topically applied to the eyes following surgery three times day for 30 days. All animals were sacrificed on Day 30.
# Bleb was monitored throughout the study. Bleb volumes were measured with the use of calibrated calipers. […] There were differences noted between groups at Day 7, and the majority of blebs were gone by Day 14 through Day 30 indicating bleb failure due to subconjunctival scarring. Results of the vehicle and pirfenidone groups were similar to those reported in the literature (Zhong H et al., Invest Ophthalmol Vis Sci, 52: 3136-3142, 2011).
# [2] = Ocular tissue and plasma distribution after topical ocular instillation (LC-MS/MS); format: in vivo, New Zealand White rabbits; conditions: male, New Zealand White, rabbit
# Method: The objective of this study was to assess the local tolerance and ocular distribution of sorafenib and lenvatinib (0.3% w/w) when administered by topical ocular instillation in the eyes. Five to six male New Zealand White rabbits were used per treatment group. Each right eye received a 35 μL eyedrop of the vehicle, sorafenib (0.3% w/w), or lenvatinib (0.3% w/w) three times daily for 5 days. On Dosing Day 5, the animals were sacrificed and eyes were enucleated, and plasma and the ocular tissues were collected. Tissue and plasma concentrations of the compounds were measured by LC-MS/MS.
# TGF-β1 mRNA = TGF-β1 mRNA expression (qPCR) in skin of LL-37-challenged mice; format: in vivo; conditions: single intradermal injection 1.6 mg
# Method: as §1, §2
# The TGFb1 mRNA expression in mice induced with LL37 and treated with lenvatinib was 79% of that challenged with LL37 alone (i.e., without treatment).
# [3] = tested on: rabbit ear hypertrophic scar; assay: Histopathology of rabbit ear wounds (neovascularization, fibrosis, re-epithelization); format: in vivo, New Zealand white rabbits; design: key to Total Score, Treated Mean: aggregate of neovascularization, fibrosis, re-epithelization grades; key to Neovascularization score, Treated Mean / Fibrosis/Collagen score, Treated Mean / Re-epithelization score, Treated Mean: five-step severity grade: minimal, mild, moderate, marked, severe; conditions: rabbit ear wound, intradermal dosing of 1 wt. %; for Total Score, Treated Mean: aggregation of microscopic findings; for Fibrosis/Collagen score, Treated Mean / Neovascularization score, Treated Mean / Re-epithelization score, Treated Mean: five-step severity grading (minimal to severe)
# Method: In New Zealand white rabbits, maintained under a surgical plane of anesthesia, trauma stimulation of the skin on the ventral surface of both ears is initiated on Day 1. Trauma sites are evaluated on Days 8, 15, 22, 29, 36, and 43. On days 15 and 29, each site is dosed with test compounds (e.g., 1% w/w, 100 μl) by intradermal or intralesional injections.
# At necropsy, each treatment site was harvested and preserved for hematoxylin and […] and Mason's trichrome stainings. Each lesion was examined histologically and graded for neovascularization, fibrosis and re-epithelization using a five-step/severity grading system (minimal, mild, moderate, marked, and severe). The average total score is an aggregation of these microscopic findings relating to an inflammatory response.
structure (smiles),measurement,setting,value
COc1cc2nccc(Oc3ccc(NC(=O)NC4CC4)c(Cl)c3)c2cc1C(N)=O [lenvatinib],effect on subretinal fibrosis,subretinal fibrosis,therapeutic effects in the treatment of subretinal fibrosis
same,neovascular lesion sizes,subretinal fibrosis,marked reductions in neovascular lesion sizes
same,"scores of inflammation (inflammatory cell infiltrate), words",[1],prominent reductions
same,bleb survival on Day 7,"subconjunctival scarring; eyedrops 35 uL three times a day, pirfenidone 1% w/v, lenvatinib 0.3% w/v, compared to vehicle and sorafenib groups",kept bleb survival on Day 7
same,concentration at 5 day of dosing,"[2]; in vivo, Ocular tissue concentration, Aqueous Humor, Mean",5.49 ng/g
same,concentration at 5 day of dosing,"[2]; in vivo, Ocular tissue concentration, Choroid, Mean",38 ng/g
same,concentration at 5 day of dosing,"[2]; in vivo, Ocular tissue concentration, Conjunctiva, Mean",300 ng/g
same,concentration at 5 day of dosing,"[2]; in vivo, Ocular tissue concentration, Cornea, Mean",178 ng/g
same,concentration at 5 day of dosing,"[2]; in vivo, Ocular tissue concentration, Iris Ciliary Body, Mean",18.2 ng/g
same,concentration at 5 day of dosing,"[2]; in vivo, Ocular tissue concentration, Retina, Mean",23.5 ng/g
same,concentration at 5 day of dosing,"[2]; in vivo, Ocular tissue concentration, Sclera, Mean",49 ng/g
same,concentration at 5 day of dosing,"[2]; in vivo, Ocular tissue concentration, Vitreous Humor, Mean",0.619 ng/g
same,concentration at 5 day of dosing,"[2]; in vivo, plasma concentration, mean (±SD)",131 ng/mL
same,TGF-β1 mRNA expression among all treatment groups,TGF-β1 mRNA; LL-37 challenge,lowest TGF-β1 mRNA expression
same,TGFb1 mRNA expression relative to LL37 alone (without treatment),"TGF-β1 mRNA; LL-37 every 12 hours x4, 48 hours after initial LL-37 injection",79%
CNC(=O)c1cc(Oc2ccc(NC(=O)Nc3ccc(Cl)c(C(F)(F)F)c3)cc2)ccn1 [sorafenib],bleb failure on Day 14,"subconjunctival scarring; 0.3% w/v eyedrops three times a day, 6 eyes per group",all of the sorafenib treated eyes demonstrated bleb failure
same,concentration at 5 day of dosing,"[2]; aqueous humor, topical, 0.3 % w/w (35 μL eyedrop), rabbit eyes, topical instillation of 0.3% three times daily for five days, N=6, read-out: Ocular tissue concentration, Aqueous Humor, Mean",0 ng/g
same,concentration at 5 day of dosing,"[2]; choroid, topical, 0.3 % w/w (35 μL eyedrop), rabbit eyes, topical instillation of 0.3% three times daily for five days, N=6, read-out: Ocular tissue concentration, Choroid, Mean",8.19 ng/g
same,concentration at 5 day of dosing,"[2]; conjunctiva, topical, 0.3 % w/w (35 μL eyedrop), rabbit eyes, topical instillation of 0.3% three times daily for five days, N=6, read-out: Ocular tissue concentration, Conjunctiva, Mean",860 ng/g
same,concentration at 5 day of dosing,"[2]; cornea, topical, 0.3 % w/w (35 μL eyedrop), rabbit eyes, topical instillation of 0.3% three times daily for five days, N=6, read-out: Ocular tissue concentration, Cornea, Mean",131 ng/g
same,concentration at 5 day of dosing,"[2]; iris ciliary body, topical, 0.3 % w/w (35 μL eyedrop), rabbit eyes, topical instillation of 0.3% three times daily for five days, N=6, read-out: Ocular tissue concentration, Iris Ciliary Body, Mean",3.34 ng/g
same,concentration at 5 day of dosing,"[2]; plasma, topical, 0.3 % w/w (35 μL eyedrop), 0.3% w/w eyedrop 35 μL three times daily, Day 5 of dosing, read-out: plasma concentration, mean (±SD)",5.09 ng/mL
same,concentration at 5 day of dosing,"[2]; retina, topical, 0.3 % w/w (35 μL eyedrop), rabbit eyes, topical instillation of 0.3% three times daily for five days, N=6, read-out: Ocular tissue concentration, Retina, Mean",17.4 ng/g
same,concentration at 5 day of dosing,"[2]; sclera, topical, 0.3 % w/w (35 μL eyedrop), rabbit eyes, topical instillation of 0.3% three times daily for five days, N=6, read-out: Ocular tissue concentration, Sclera, Mean",16.4 ng/g
same,concentration at 5 day of dosing,"[2]; vitreous humor, topical, 0.3 % w/w (35 μL eyedrop), rabbit eyes, topical instillation of 0.3% three times daily for five days, N=6, read-out: Ocular tissue concentration, Vitreous Humor, Mean",0.11 ng/g
same,angiogenesis/neovascularization and fibrosis by histopathology versus untreated wounds (words),[3],do not show any reduction in angiogenesis
same,"Total Score, Treated Mean",[3],5.8
same,"Fibrosis/Collagen score, Treated Mean",[3],2.5
same,"Neovascularization score, Treated Mean",[3],3
same,"Re-epithelization score, Treated Mean",[3],0.3
same,angiogenesis/neovascularization and fibrosis by histopathology versus untreated wounds (words),[3]; listed as Sorafenib,"slightly increased neovascularization, and similar or slightly increased fibrosis"
COC(=O)c1ccc2c(c1)NC(=O)/C2=C(\Nc1ccc(N(C)C(=O)CN2CCN(C)CC2)cc1)c1ccccc1 [nintedanib],effect on subretinal fibrosis,subretinal fibrosis,therapeutic effects in the treatment of subretinal fibrosis
same,neovascular lesion sizes,subretinal fibrosis,marked reductions in neovascular lesion sizes
same,"scores of inflammation (inflammatory cell infiltrate), words",[1],prominent reductions
same,angiogenesis/neovascularization and fibrosis by histopathology versus untreated wounds (words),[3],decreased angiogenesis and fibrosis
same,"average total score of test wounds, fold lower than untreated wounds",[3],about 1.33 fold
same,"Total Score, Treated Mean",[3],4.5
same,"Fibrosis/Collagen score, Treated Mean",[3],3
same,"Neovascularization score, Treated Mean",[3],1
same,"Re-epithelization score, Treated Mean",[3],0.5
same,angiogenesis/neovascularization and fibrosis by histopathology versus untreated wounds (words),[3]; listed as Nintedanib,much less neovascularization and about the same fibrosis as untreated wounds

# Reference: patent publication US12502391B2, “Multi-kinase inhibitors of VEGF and TGF beta and uses thereof” (AIVIVA BIOPHARMA, INC., priority 2018, dated 2025)
